In EP0540143B1, “Compounds and methods for inhibition of HIV and related viruses” (priority 1991, dated 1993):
“And” between values parts separate entries of the source, which are not always exact repeats. Equal values may be shown once.

How the values were obtained:
SIV virus = assay: Test C (XTT), MT4 cells infected with SIV; type: cell-based; conditions: for inhibition at 0.1 µg/mL / inhibition at 1 µg/mL / inhibition at 10 µg/mL / inhibition at 100 µg/mL: Simian immunodeficiency virus, MT4, Test C; for % inhibition: Test C
Method: (§1) Tests A, B, C, and D (XTT)
(§2) MT4 cells in a medium of RPMI 1640, 5% FCS, penicillin/streptomycin are adjusted to 2x10^5 cells/ml and seeded into microplates (96 wells/plate) 100 µl cell suspension/well giving 2x10^4 cells/well. The compound to be tested is made into a 10 mg/ml mixture in DMSO and stored at -20°C. The compound in DMSO is diluted with medium containing 10% DMSO in a 10-fold dilution series to give 1 mg/ml, 10 mg/ml, and […] solutions. Further dilutions to 400, 40, 4 and 0.4 mg/ml are made in medium containing microplates. Fifty µl of the 400, 40, and 4 mg/ml are transferred to the cell-containing microplates with a multi-channel pipette (final concentration: 100, 10, and 1 mg/ml). Finally, 50 µl of virus suspension is added to each well (with a repetitive "Eppendorf" multipipett). Each plate has at least six wells with the following: [Test A: HIV virus; Test B: HIV(II) virus; Test C: SIV virus; Test D: No virus]; with no drug (virus control) and six wells without virus (medium control). The plate is put into a plastic bag and incubated for six days in CO2 atmosphere. To each well in the plate is added 50 µl of XTT ((2,3-bis[2-methoxy-4-nitro-5-sulfophenyl]-5-[(phenylamino)carbonyl]-2H-tetrazolium hydroxide), (1 mg/ml 0.01-0.02 mM N-metyl-phenazonium methosulfate). After six hours of incubation in CO2 atmosphere the plates are covered with adhesive plate sealers and gently mixed on a vortex. Optical densities are determined at a wavelength of 450 nm and a reference wavelength of 650 nm. The percent reduction of cytotoxocity caused by the virus infection is calculated as follows: (OD450 compound - OD450 inf cells)/(OD450 uninf cells - OD450 inf cells)x 100 [formula]

HIV-2 = assay: Test F (HIV-2 RT), RT activity in supernatant of infected MT-4/H9 cells; type: cell-based; conditions: for inhibition at 0.1 µg/mL / inhibition at 1 µg/mL / inhibition at 10 µg/mL / inhibition at 100 µg/mL: Human immunodeficiency virus 2, H9, Test F; for % inhibition: Test F
Method: (§3) Tests E, F, G, H (HIV-IRT, HIV-2RT, SIVRT, no virus)
(§4) MT-4/H9-cells are adjusted to 2x10^5 cells/ml medium (RPMI 1640, 5% FCS, penicillin/streptomycin) and seeded into microplates (96 wells/plate) […] cell suspension/well giving 2 x 10^4 cells/well. The compound to be tested is made 10 mg/ml in DMSO = stock solution (stored at -20°C). The compound dissolved in DMSO is diluted 25 times in medium to give 400 mg/ml. Further dilutions to 40 mg/ml and 4 mg/ml are made in microplates.
(§5) 50 µl of the dilutions 400 mg/ml, 40 mg/ml and 4mg/ml are transferred to the "cell-containing" microplate with a multichannel pipette. […]
(§6) Finally 50 µl of virus suspension is added to each well (with a repetitive "Eppendorf multipett"). [Test E-HIV-1; Test F-HIV-2; Test G-SIV; Test H-no virus].
(§7) Each plate has at least four wells with virus but no drug (virus control) and two wells without virus (medium control). The plate is put into a plastic bag to avoid evaporation and incubated for six days in CO2-atmosphere. 10 µl supernatant from each well is transferred with a multichannel pipette into a new microplate to which 40 ml VDB, (50 mM Tris-HCl pH = 7.6, 35 mM KCl, 4 mM DTT, 1 mM EDTA, 1.3% Triton X-100), have been added to each well. The addition of 50 ml RT-reaction mix, (10 ml culture supernatant, 40 ml VDB and 50 ml reaction mixture giving a final concentration of: 100 mM Tris-HCl pH = 7.6, 100 mM KCl, 4 mM MgCl2, 4 mM DTT, 275 mg/ml BSA/ml, 5 mg (rA)n(dT)12-18/ml and 0.3 mM ^3H dTTP (specific activity 18.000 cpm/pmol)) gives a final volume of […]/well. After 60 minutes of incubation the whole assay volume is transferred by use of a cell harvester to a filter mat prewetted with 5% TCA. The filter is washed in 5% TCA and rinsed once in ethanol. After drying the filter mat at 60°C for 30 min. each filter (96/mat) is punched out and put into counting vials 2 ml of scintillation fluid is added and the samples are counted (1 min) or the whole filter mat is put into a plastic bag, 10 ml of scintillation fluid is added and the filter mat is counted in a Beckman Betaplate counter. Percent reduction of RT activity is determined by comparing RT activity for virus control with the RT activity measured for each dilution of the compound.

HIV-1 = assay: Test E (HIV-1 RT), RT activity in supernatant of infected MT-4/H9 cells; type: cell-based; conditions: for inhibition at 0.1 µg/mL / inhibition at 1 µg/mL / inhibition at 10 µg/mL / inhibition at 100 µg/mL: Human immunodeficiency virus 1, H9, Test E
Method: as §3, §4, §5, §6, §7

HIV(II) virus = assay: Test B (XTT), MT4 cells infected with HIV(II); type: cell-based; conditions: for inhibition at 0.1 µg/mL / inhibition at 1 µg/mL / inhibition at 10 µg/mL / inhibition at 100 µg/mL: Human immunodeficiency virus 1, MT4, Test B
Method: as §1, §2

MT4 cells = assay: Test D (XTT), MT4 cells, no virus; type: cell-based; conditions: Homo sapiens
Method: as §1, §2

recombinant HIV-RT = recombinant HIV-RT (Human immunodeficiency virus type 1 group M subtype B, UniProt P04585); assay: Test I (HIVRT (rAdt)), direct inhibition of recombinant HIV-RT; type: biochemical
Method: The compounds were tested for direct inhibitory activity on HIV-RT in a volume of […] recombinant HIV-RT (diluted in virus disruption buffer to give 200.000 cpm).
100 mM Tris-HCl pH 7.6, 100 mM KCl, 4 mM MgCl2, 4 mM DTT, 275 mg/ml BSA, 0.5 mg (rA)n(dT)12-18 and 0.3 mM ^3H- dTTP (specific activity […]). After 60 minutess of incubation 40 ml in duplicate were spotted on paper discs and washed in 5% TCA. After rinsing the paper discs in ethanol they were dried and counted in scintillation fluid.

HIV virus = assay: Test A (XTT), MT4 cells infected with HIV; type: cell-based; conditions: for inhibition at 10 µg/mL / inhibition at 0.1 µg/mL / inhibition at 100 µg/mL / inhibition at 1 µg/mL: Human immunodeficiency virus 1, MT4, Test A; for % inhibition: Test A
Method: as §1, §2

Row | SMILES | inhibition at 1 µg/mL (SIV virus; 1 µg/ml) [%] | inhibition at 10 µg/mL (SIV virus) [%] | inhibition at 100 µg/mL (SIV virus) [%] | inhibition at 0.1 µg/mL (HIV-2) [%] | inhibition at 1 µg/mL (HIV-2; 1 µg/ml) [%] | inhibition at 10 µg/mL (HIV-2; 10 µg/ml) [%] | inhibition at 100 µg/mL (HIV-2; 100 µg/ml) [%] | inhibition at 0.1 µg/mL (HIV-1; 0.1 µg/ml) [%] | inhibition at 1 µg/mL (HIV-1) [%] | inhibition at 10 µg/mL (HIV-1) [%] | inhibition at 100 µg/mL (HIV-1) [%] | inhibition at 0.1 µg/mL (HIV(II) virus) [%] | inhibition at 1 µg/mL (HIV(II) virus; 1 µg/ml) [%] | inhibition at 1 µg/mL (MT4 cells) [%] | inhibition at 10 µg/mL (MT4 cells) [%] | inhibition at 100 µg/mL (MT4 cells) [%] | inhibition at 0.1 µg/mL (recombinant HIV-RT; 0.1 µg/ml) [%] | inhibition at 1 µg/mL (recombinant HIV-RT; 1 µg/ml) [%] | inhibition at 10 µg/mL (recombinant HIV-RT; 10 µg/ml) [%] | inhibition at 10 µg/mL (HIV virus; 10 µg/ml) [%] | further results
1 | FC(F)(F)c1csc(NC(=S)NCCc2ccccc2)n1 | 11 | 5 | 43 | 56 | 95 | 98 | 96 | 98 | 97 | 96 | 97 | 21 | 100 | 46 | 75 | 68 | 63 | 73 | 73 | 24 | inhibition at 0.1 µg/mL (SIV virus; 0.1 µg/ml): 9%; inhibition at 10 µg/mL (HIV(II) virus): 38%; inhibition at 100 µg/mL (HIV(II) virus): 19%; inhibition at 0.1 µg/mL (MT4 cells): 0%; % inhibition (recombinant HIV-RT; 0.1 µg/ml): 68%; % inhibition (recombinant HIV-RT; 1 µg/ml): 75%; % inhibition (recombinant HIV-RT; 10 µg/ml): 75%; % inhibition (HIV virus; 0.1 µg/ml): 62% and 84%; % inhibition (HIV virus; 1 µg/ml): 100% and 75% and 84%; % inhibition (HIV virus; 10 µg/ml): 16% and 31%
2 | Cc1nc(NC(=S)NCCc2ccccc2)sc1C | 0 | 1 | 0 | 1 | 92 | 61 | 93 | 1 | 23 | 91 | 94 | 13 | 100 |  | 0 | 0 | 34 | 39 | 38 | 85 | inhibition at 10 µg/mL (HIV(II) virus): 100%; inhibition at 100 µg/mL (HIV(II) virus): 85%; inhibition at 0.1 µg/mL (HIV virus; 0.1 µg/ml): 7%; inhibition at 100 µg/mL (HIV virus; 100 µg/ml): 99%; % inhibition (HIV virus; 10 µg/ml): 88%; % inhibition (HIV virus; 100 µg/ml): 100%
3 | N#Cc1csc(NC(=S)NCCc2ccccc2)n1 | 5 | 2 | 0 | 67 | 91 | 94 | 96 | 99 | 98 | 98 | 98 | 74 | 90 | 53 | 70 | 93 | 72 | 93 | 94 | 0 | inhibition at 0.1 µg/mL (SIV virus; 0.1 µg/ml): 11%; inhibition at 10 µg/mL (HIV(II) virus): 0%; inhibition at 100 µg/mL (HIV(II) virus): 0%; inhibition at 0.1 µg/mL (MT4 cells): 0%; % inhibition (recombinant HIV-RT; 0.1 µg/ml): 73%; % inhibition (recombinant HIV-RT; 1 µg/ml): 95%; % inhibition (recombinant HIV-RT; 10 µg/ml): 95%; inhibition at 0.1 µg/mL (HIV virus; 0.1 µg/ml): 84%; inhibition at 1 µg/mL (HIV virus; 1 µg/ml): 51%; inhibition at 100 µg/mL (HIV virus; 100 µg/ml): 0%; % inhibition (HIV virus; 1 µg/ml): 63%
4 | S=C(NCCc1ccccc1)Nc1nnc[nH]1 | 5 | 8 | 15 |  |  |  |  |  |  |  |  |  |  | 33 | 33 | 0 | 12 | 14 | 14 | 27 | inhibition at 0.1 µg/mL (MT4 cells): 15%; inhibition at 1 µg/mL (HIV virus; 1 µg/ml): 11%; inhibition at 100 µg/mL (HIV virus; 100 µg/ml): 45%
5 | S=C(NCCc1ccccc1)Nc1nc2ccccc2s1 | 0 | 1 | 8 | 1 | 87 | 84 | 96 | 1 | 77 | 96 | 95 | 17 | 99 | 32 | 27 | 23 | 39 | 36 | 40 | 100 | inhibition at 10 µg/mL (HIV(II) virus): 100%; inhibition at 100 µg/mL (HIV(II) virus): 50%; inhibition at 0.1 µg/mL (HIV virus; 0.1 µg/ml): 0%; inhibition at 1 µg/mL (HIV virus; 1 µg/ml): 63%; % inhibition (HIV virus; 1 µg/ml): 53%; % inhibition (HIV virus; 10 µg/ml): 99%
6 | S=C(NCCc1ccccc1)Nc1nccs1 [the 1st table, row 1] |  |  |  | 43 | 75 | 57 | 95 |  | 99 | 99 | 99 |  |  | 18 | 33 | 45 |  |  |  |  | % inhibition (SIV virus; 0.1 µg/ml): 0% and 1%; % inhibition (SIV virus; 1 µg/ml): 0% and 8% and 2%; % inhibition (HIV-2; 1 µg/ml): 79%; % inhibition (HIV-2; 10 µg/ml): 76%; % inhibition (HIV-2; 100 µg/ml): 86%; % inhibition (HIV-1; Test E, 0.1 µg/ml): 10% and 1%; % inhibition (HIV(II) virus; Test B, 1 µg/ml): 0%; inhibition at 0.1 µg/mL (MT4 cells): 31%; inhibition at 100 µg/mL (HIV virus; 100 µg/ml): 48%; % inhibition (HIV virus; 0.1 µg/ml): 4%; % inhibition (HIV virus; 10 µg/ml): 99% and 100% and 70% and 98%; % inhibition (HIV virus; 100 µg/ml): 58% and 64%
